In patent publication US10202361B2, “Pyridazinones as herbicides” (E I DU PONT DE NEMOURS AND COMPANY, priority 2014, dated 2019):
Like-named read-outs stand apart in the source and are kept apart here.

Tests used:
Assay in all cases: Test C pre-/postemergence greenhouse herbicide test
Format in all cases: in vivo
[1] = tested on: pigweed (Amaranthus retroflexus); settings: Amaranthus retroflexus, Pigweed, read-out: Plant response rating; for pest or weed control at 31 g/ha: 31 g ai/ha; for pest or weed control at 62 g/ha: 62 g ai/ha; for pest or weed control at 125 g/ha: 125 g ai/ha; for pest or weed control at 250 g/ha: 250 g ai/ha
Procedure, shortened: (§1)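 Plant response is scored on a 0–100 scale, where 100 means complete control, by visual comparison with controls 13 to 15 d after greenhouse treatment. Applications are made pre- and postemergence using a surfactant-containing, non-phytotoxic solvent formulation.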

corn (Zea mays) = settings: Zea mays, Corn, read-out: Plant response rating; for plant injury at 31 g/ha: 31 g ai/ha; for plant injury at 62 g/ha: 62 g ai/ha; for plant injury at 125 g/ha: 125 g ai/ha; for plant injury at 250 g/ha: 250 g ai/ha
Procedure, shortened: as §1

[2] = tested on: blackgrass (Alopecurus myosuroides); settings: Alopecurus myosuroides, Blackgrass, read-out: Plant response rating; for pest or weed control at 31 g/ha: 31 g ai/ha; for pest or weed control at 62 g/ha: 62 g ai/ha; for pest or weed control at 125 g/ha: 125 g ai/ha; for pest or weed control at 250 g/ha: 250 g ai/ha
Procedure, shortened: as §1

[3] = tested on: crabgrass, Large (large crabgrass, Digitaria sanguinalis); settings: Digitaria sanguinalis, Crabgrass, Large, read-out: Plant response rating; for pest or weed control at 31 g/ha: 31 g ai/ha; for pest or weed control at 62 g/ha: 62 g ai/ha; for pest or weed control at 125 g/ha: 125 g ai/ha; for pest or weed control at 250 g/ha: 250 g ai/ha
Procedure, shortened: as §1

[4] = tested on: foxtail, giant (giant foxtail, Setaria faberii); settings: Setaria faberi, Foxtail, Giant, read-out: Plant response rating; for pest or weed control at 31 g/ha: 31 g ai/ha; for pest or weed control at 62 g/ha: 62 g ai/ha; for pest or weed control at 125 g/ha: 125 g ai/ha; for pest or weed control at 250 g/ha: 250 g ai/ha
Procedure, shortened: as §1

[5] = tested on: ryegrass, Italian (Italian ryegrass, Lolium multiflorum); settings: Lolium multiflorum, Ryegrass, Italian, read-out: Plant response rating; for pest or weed control at 31 g/ha: 31 g ai/ha; for pest or weed control at 62 g/ha: 62 g ai/ha; for pest or weed control at 125 g/ha: 125 g ai/ha; for pest or weed control at 250 g/ha: 250 g ai/ha
Procedure, shortened: as §1

[6] = tested on: nutsedge, yellow (yellow nutsedge, Cyperus esculentus); settings: Cyperus, Nutsedge, Yellow, read-out: Plant response rating; for pest or weed control at 31 g/ha: 31 g ai/ha; for pest or weed control at 62 g/ha: 62 g ai/ha; for pest or weed control at 125 g/ha: 125 g ai/ha; for pest or weed control at 250 g/ha: 250 g ai/ha
Procedure, shortened: as §1

[7] = tested on: oilseed rape (Brassica napus); settings: Oilseed Rape
Procedure, shortened: as §1

[8] = tested on: velvetleaf (Abutilon theophrasti); settings: Abutilon theophrasti, Velvetleaf, read-out: Plant response rating; for pest or weed control at 62 g/ha: 62 g ai/ha; for pest or weed control at 125 g/ha: 125 g ai/ha; for pest or weed control at 250 g/ha: 250 g ai/ha
Procedure, shortened: as §1

[9] = tested on: lambsquarters (Chenopodium album)
Procedure, shortened: as §1

[10] = tested on: morningglory (Ipomoea coccinea); settings: Morningglory
Procedure, shortened: as §1

soybean (Glycine max) = settings: Glycine max, Soybean, read-out: Plant response rating; for plant injury at 62 g/ha: 62 g ai/ha; for plant injury at 125 g/ha: 125 g ai/ha; for plant injury at 250 g/ha: 250 g ai/ha
Procedure, shortened: as §1

[11] = post-emergence, Postemergence, 31 g ai/ha

Cc1cc(=O)n(-c2ccc(F)cc2)nc1Cc1ccnc(C(F)(F)F)c1 [Compound 1, 2-(4-fluorophenyl)-5-methyl-6-[[2-(trifluoromethyl)-4-pyridinyl]methyl]-3(2H)-pyridazinone] gave a pest or weed control at 31 g/ha ([1]; post-emergence, Postemergence) of 35%, a pest or weed control at 62 g/ha ([1]; post-emergence, Postemergence) of 55% and a pest or weed control at 125 g/ha ([1]; post-emergence, Postemergence) of 65%. The pest or weed control at 250 g/ha ([1]; post-emergence, Postemergence) was 85%, the pest or weed control at 31 g/ha ([1]; pre-emergence, Preemergence) was 100% and the pest or weed control at 62 g/ha ([1]; pre-emergence, Preemergence) was 100%. It also gave a pest or weed control at 125 g/ha ([1]; pre-emergence, Preemergence) of 100%, a pest or weed control at 250 g/ha ([1]; pre-emergence, Preemergence) of 100% and a plant injury at 31 g/ha (corn (Zea mays); post-emergence, Postemergence) of 5%. For the same compound, the plant injury at 62 g/ha (corn (Zea mays); post-emergence, Postemergence) was 5%, the plant injury at 125 g/ha (corn (Zea mays); post-emergence, Postemergence) was 5% and the plant injury at 250 g/ha (corn (Zea mays); post-emergence, Postemergence) was 10%. It also gave a plant injury at 31 g/ha (corn (Zea mays); pre-emergence, Preemergence) of 15%, a plant injury at 62 g/ha (corn (Zea mays); pre-emergence, Preemergence) of 50% and a plant injury at 125 g/ha (corn (Zea mays); pre-emergence, Preemergence) of 90%. It also gave a plant injury at 250 g/ha (corn (Zea mays); pre-emergence, Preemergence) of 95%, a pest or weed control at 31 g/ha ([2]; post-emergence, Postemergence) of 5% and a pest or weed control at 62 g/ha ([2]; post-emergence, Postemergence) of 5%. For the same compound, the pest or weed control at 125 g/ha ([2]; post-emergence, Postemergence) was 5%, the pest or weed control at 250 g/ha ([2]; post-emergence, Postemergence) was 5% and the pest or weed control at 31 g/ha ([2]; pre-emergence, Preemergence) was 30%. For the same compound, the pest or weed control at 62 g/ha ([2]; pre-emergence, Preemergence) was 30%, the pest or weed control at 125 g/ha ([2]; pre-emergence, Preemergence) was 90% and the pest or weed control at 250 g/ha ([2]; pre-emergence, Preemergence) was 90%. It also gave a pest or weed control at 31 g/ha ([3]; post-emergence, Postemergence) of 5%, a pest or weed control at 62 g/ha ([3]; post-emergence, Postemergence) of 5% and a pest or weed control at 125 g/ha ([3]; post-emergence, Postemergence) of 10%. It also gave a pest or weed control at 250 g/ha ([3]; post-emergence, Postemergence) of 20%, a pest or weed control at 31 g/ha ([3]; pre-emergence, Preemergence) of 100% and a pest or weed control at 62 g/ha ([3]; pre-emergence, Preemergence) of 100%. The pest or weed control at 125 g/ha ([3]; pre-emergence, Preemergence) was 100%, the pest or weed control at 250 g/ha ([3]; pre-emergence, Preemergence) was 100% and the pest or weed control at 31 g/ha ([4]; post-emergence, Postemergence) was 10%. It also gave a pest or weed control at 62 g/ha ([4]; post-emergence, Postemergence) of 10%, a pest or weed control at 125 g/ha ([4]; post-emergence, Postemergence) of 15% and a pest or weed control at 250 g/ha ([4]; post-emergence, Postemergence) of 20%. For the same compound, the pest or weed control at 31 g/ha ([4]; pre-emergence, Preemergence) was 100%, the pest or weed control at 62 g/ha ([4]; pre-emergence, Preemergence) was 100% and the pest or weed control at 125 g/ha ([4]; pre-emergence, Preemergence) was 100%. It also gave a pest or weed control at 250 g/ha ([4]; pre-emergence, Preemergence) of 100%, a pest or weed control at 31 g/ha ([5]; post-emergence, Postemergence) of 5% and a pest or weed control at 62 g/ha ([5]; post-emergence, Postemergence) of 5%. The pest or weed control at 125 g/ha ([5]; post-emergence, Postemergence) was 5%, the pest or weed control at 250 g/ha ([5]; post-emergence, Postemergence) was 5% and the pest or weed control at 31 g/ha ([5]; pre-emergence, Preemergence) was 5%. For the same compound, the pest or weed control at 62 g/ha ([5]; pre-emergence, Preemergence) was 10%, the pest or weed control at 125 g/ha ([5]; pre-emergence, Preemergence) was 85% and the pest or weed control at 250 g/ha ([5]; pre-emergence, Preemergence) was 98%. The pest or weed control at 31 g/ha ([6]; post-emergence, Postemergence) was 0%, the pest or weed control at 62 g/ha ([6]; post-emergence, Postemergence) was 5% and the pest or weed control at 125 g/ha ([6]; post-emergence, Postemergence) was 5%. It also gave a pest or weed control at 250 g/ha ([6]; post-emergence, Postemergence) of 5%, a pest or weed control at 31 g/ha ([6]; pre-emergence, Preemergence) of 10% and a pest or weed control at 62 g/ha ([6]; pre-emergence, Preemergence) of 30%. For the same compound, the pest or weed control at 125 g/ha ([6]; pre-emergence, Preemergence) was 50%, the pest or weed control at 250 g/ha ([6]; pre-emergence, Preemergence) was 55% and the Plant response rating ([7]; Postemergence, 31 g ai/ha) was 5. The Plant response rating ([7]; Postemergence, 62 g ai/ha) was 5, the Plant response rating ([7]; Postemergence, 125 g ai/ha) was 10 and the Plant response rating ([7]; Postemergence, 250 g ai/ha) was 30. For the same compound, the Plant response rating ([7]; Preemergence, 31 g ai/ha) was 30, the Plant response rating ([7]; Preemergence, 62 g ai/ha) was 80 and the Plant response rating ([7]; Preemergence, 125 g ai/ha) was 100. For the same compound, the Plant response rating ([7]; Preemergence, 250 g ai/ha) was 100, the pest or weed control at 31 g/ha [8, 11] was 10% and the pest or weed control at 62 g/ha ([8]; post-emergence, Postemergence) was 20%. It also gave a pest or weed control at 125 g/ha ([8]; post-emergence, Postemergence) of 20%, a pest or weed control at 250 g/ha ([8]; post-emergence, Postemergence) of 30% and a pest or weed control at 62 g/ha ([8]; pre-emergence, Preemergence) of 35%. For the same compound, the pest or weed control at 125 g/ha ([8]; pre-emergence, Preemergence) was 40%, the pest or weed control at 250 g/ha ([8]; pre-emergence, Preemergence) was 100% and the Plant response rating ([9]; Postemergence, 31 g ai/ha) was 60. For the same compound, the Plant response rating ([9]; Postemergence, 125 g ai/ha) was 65, the Plant response rating ([9]; Postemergence, 250 g ai/ha) was 75 and the Plant response rating ([9]; Preemergence, 31 g ai/ha) was 100. The Plant response rating ([9]; Preemergence, 62 g ai/ha) was 100, the Plant response rating ([9]; Preemergence, 125 g ai/ha) was 100 and the Plant response rating ([9]; Preemergence, 250 g ai/ha) was 100. For the same compound, the Plant response rating ([10]; Postemergence, 31 g ai/ha) was 60, the Plant response rating ([10]; Postemergence, 125 g ai/ha) was 70 and the Plant response rating ([10]; Postemergence, 250 g ai/ha) was 70. For the same compound, the Plant response rating ([10]; Preemergence, 31 g ai/ha) was 50, the Plant response rating ([10]; Preemergence, 62 g ai/ha) was 90 and the Plant response rating ([10]; Preemergence, 125 g ai/ha) was 100. The Plant response rating ([10]; Preemergence, 250 g ai/ha) was 100, the plant injury at 31 g/ha (soybean (Glycine max); [11]) was 35% and the plant injury at 62 g/ha (soybean (Glycine max); post-emergence, Postemergence) was 40%. For the same compound, the plant injury at 125 g/ha (soybean (Glycine max); post-emergence, Postemergence) was 50%, the plant injury at 250 g/ha (soybean (Glycine max); post-emergence, Postemergence) was 70% and the plant injury at 62 g/ha (soybean (Glycine max); pre-emergence, Preemergence) was 60%. The plant injury at 125 g/ha (soybean (Glycine max); pre-emergence, Preemergence) was 95% and the plant injury at 250 g/ha (soybean (Glycine max); pre-emergence, Preemergence) was 98%.
